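Cells were grown in 96-well plates and exposed to each compound for 48 hours at five concentrations; endpoints were interpolated linearly between bracketing concentrations, or set to the highest concentration if not reached. Definition used: TGI = concentration required for complete inhibition of growth.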

Common to all, as to assay: DTP human tumour cell line panel, 48 h
Experiment [1] relates to LOX IMVI melanoma.
The test system of experiment [2] is SF-268 CNS.
Experiment [3] has as its system SF-295 CNS.
The test system of experiment [4] is HS 578T breast.
Experiment [5] relates to NCI-H460 lung.
For experiment [6], the system named is HT29 colon.
The test system of experiment [7] is MDA-N.
The subject of experiment [8] is SW-620 colon.
The subject of experiment [9] is MCF7 breast.
For experiment [10], the system named is MDA-MB-435.
Experiment [11] concerns COLO 205 colon.

For orientation: TGI means the concentration giving total growth inhibition. Lower therefore signals more potent growth arrest. Turning to `CCOC(=O)c1c(SCCN2CCCC2)n(-c2ccccc2)c(=S)n(-c2ccccc2)c1=O`, the concentration for total growth inhibition (TGI) was 3.79 µM in experiment [1]; 10.1 µM in [2]; above 75.7 µM in experiment [3]; above 100 µM in experiment [4]; 12.3 µM in [5]; 11.5 µM in experiment [6]. For the same molecule, the total growth inhibition concentration (TGI) turned out to be 6.01 µM in [7]; 7.58 µM in experiment [8]; 3.36 µM in [9]; 5.95 µM in experiment [10]; 3.53 µM in experiment [11].
For the molecule `Cc1ccc(C(=O)Nc2ccc(CP(=O)(O)O)cc2)cc1NC(=O)c1cccc(NC(=O)Nc2cccc(C(=O)Nc3cc(C(=O)Nc4ccc(CP(=O)(O)O)cc4)ccc3C)c2)c1`, the total growth inhibition concentration (TGI) in experiment [1], in experiment [2], in experiment [3], in [4], in experiment [5] and in [6] was above 100 µM each time. For the same molecule, the TGI in experiment [7], in [8], in [9], in experiment [10] and in [11] was above 100 µM in each case.
`Cc1cc(C)c2c(n1)S(=O)(=O)N(CCCN1CCN(c3cccc(C(F)(F)F)c3)CC1)/C(=C(\O)c1ccc(Cl)cc1)C2=O`: the TGI in [1] was determined as 17.6 µM; in experiment [2], 21.2 µM; in experiment [3] it was 14.2 µM; in [4] it was 56.8 µM; in experiment [5], 11 µM; in experiment [6], 13.3 µM. The TGI turned out to be 15 µM in experiment [7]; 39 µM in experiment [8]; 14 µM in [9]; 15 µM in experiment [10]; 3.58 µM in experiment [11].
For `CC1CC(C#N)=C2NCCCCN2C1=O` (stereo not drawn), the concentration for total growth inhibition (TGI) in experiment [1], in experiment [2], in [3], in [4], in experiment [5] and in experiment [6] was above 100 µM each time. In addition, the total growth inhibition concentration (TGI) in [7], in [8], in [9], in experiment [10] and in experiment [11] was above 100 µM throughout.
Take `COC(c1ccc(C(C)(C)C)cc1)(c1ccc(C(C)(C)C)cc1)c1cc(C(O)(c2cc(C(OC)(c3ccc(C(C)(C)C)cc3)c3ccc(C(C)(C)C)cc3)c(C)cc2C)c2cc(C(OC)(c3ccc(C(C)(C)C)cc3)c3ccc(C(C)(C)C)cc3)c(C)cc2C)c(C)cc1C`: the TGI in experiment [1], in experiment [2], in experiment [3], in experiment [4], in experiment [5] and in experiment [6] was above 100 µM each time. The TGI in experiment [7], in [8], in experiment [9], in experiment [10] and in experiment [11] was above 100 µM throughout.
For `O=C1N[C@@H]2c3c(csc3Br)C(=O)[C@@H]2O1`, the TGI was 41.3 µM in experiment [1]; above 100 µM in [2]; above 100 µM in [3]; above 100 µM in [4]; above 100 µM in experiment [5]; above 100 µM in experiment [6]. Also, the TGI in [7] is 67.6 µM; in experiment [8], 50.5 µM; in experiment [9] it was above 100 µM; in experiment [10], 46.9 µM; in [11], above 100 µM.
For the molecule `Cc1cccc(C[C@@]2(SCc3ccccc3)C(C)(C)[C@@H]3CC[C@@]2(C)C3)n1`, the TGI in experiment [1] is 30.2 µM; in experiment [2], 29.5 µM; in experiment [3] it was 29.1 µM; in [4] it was 49.1 µM; in experiment [5], 31.3 µM; in [6], 31.9 µM. Also, the TGI in [7] amounted to 60.2 µM; in [8], 30.5 µM; in [9], 26.8 µM; in experiment [10] it was 78.3 µM; in [11], 29 µM.
Consider `CC1=CC=CC(C)(C)CC1(O[Si](C)(C)C)C(F)(F)F` (stereo not drawn), for which the TGI in [1], in experiment [2], in [3], in experiment [4], in [5] and in experiment [6] was above 100 µM each time. The TGI in [7], in [8], in experiment [9], in [10] and in experiment [11] was above 100 µM in each case.
For `CCOP(=O)(OCC)/C(F)=C/c1ccccc1`, the TGI in experiment [1], in experiment [2], in [3], in experiment [4], in experiment [5] and in experiment [6] was above 100 µM each time. Also, the TGI in [7], in experiment [8], in experiment [9], in experiment [10] and in experiment [11] was above 100 µM throughout.
On to `CC1=CC(=O)N(n2c(C)n[nH]c2=O)C1=O`, for which the TGI in [1], in experiment [2], in [3], in [4], in experiment [5] and in [6] was above 100 µM in each case. For the same molecule, the TGI in experiment [7], in [8], in experiment [9], in [10] and in [11] was above 100 µM throughout.
With `O=C(O[C@H](/C=C/c1ccccc1)P1(=O)N(Cc2ccccc2)[C@@H]2CCCC[C@H]2N1Cc1ccccc1)c1ccccc1`, the TGI was 11.8 µM in experiment [1]; above 100 µM in experiment [2]; above 100 µM in experiment [3]; above 100 µM in [4]; above 100 µM in experiment [5]; 18.4 µM in experiment [6]. Besides, the TGI is above 100 µM in [7]; above 100 µM in experiment [8]; above 100 µM in experiment [9]; 96.3 µM in experiment [10]; 5.08 µM in experiment [11].
In the case of `COc1ccc2c(c1)C(=O)c1ccccc1C2`, the concentration for total growth inhibition (TGI) in [1], in experiment [2], in [3], in experiment [4], in experiment [5] and in experiment [6] was above 100 µM in each case. Besides, the TGI in [7], in experiment [8], in experiment [9], in experiment [10] and in [11] was above 100 µM throughout.
Consider `O=C(O)c1ccc(NS(=O)(=O)Cc2ccccc2)cc1`, for which the TGI in [1], in experiment [2], in [3], in experiment [4], in experiment [5] and in experiment [6] was above 100 µM each time. Moreover, the TGI in [7], in experiment [8], in [9], in experiment [10] and in experiment [11] was above 100 µM throughout.
As to `C/C(=N/NC(=S)Nc1cccc(C)c1)c1ccccn1`, the total growth inhibition concentration (TGI) stood at 9.93 µM in experiment [1]; 13.9 µM in experiment [2]; 4.89 µM in [3]; 41.1 µM in experiment [4]; 5.59 µM in experiment [5]; 2.39 µM in experiment [6]. The concentration for total growth inhibition (TGI) in experiment [7] was 3.61 µM; in experiment [8], 5.45 µM; in [9] it was 0.224 µM; in experiment [10], 3.5 µM; in experiment [11] it was 1.34 µM.
In the case of `CN(O)C(=O)Cc1ccc(OCc2cccc(Cl)c2)cc1`, the concentration for total growth inhibition (TGI) in experiment [1], in experiment [2], in [3], in experiment [4], in experiment [5] and in experiment [6] was above 100 µM each time. Further, the TGI in experiment [7], in experiment [8], in [9], in experiment [10] and in experiment [11] was above 100 µM in each case.
For `CCN(CC)CCCn1c(=O)c2cccnc2n2c3c(=O)n(C)c(=O)n(C)c3nc12`, the concentration for total growth inhibition (TGI) in experiment [1], in experiment [2], in experiment [3], in experiment [4], in experiment [5] and in experiment [6] was above 100 µM throughout. For the same molecule, the TGI in experiment [7], in [8], in experiment [9], in experiment [10] and in [11] was above 100 µM throughout.
Take `O=C1/C(=C/c2ccc(Br)s2)NC(=S)N1CN1CCOCC1`: the TGI in experiment [1] is 61.4 µM; in experiment [2], above 100 µM; in experiment [3], above 100 µM; in [4], above 100 µM; in experiment [5], above 100 µM; in [6] it was above 100 µM. The concentration for total growth inhibition (TGI) in experiment [7] is above 100 µM; in experiment [8], above 100 µM; in experiment [9] it was 52.8 µM; in experiment [10], above 100 µM; in experiment [11] it was 87.9 µM.
For the molecule `C[C@]12CC/C(=N\O)C=C1CC[C@@H]1[C@@H]2CC[C@]2(C)C(=N/O)/C(=C/c3cccnc3)C[C@@H]12`, the TGI was found to be 9.74 µM in experiment [1]; 31.7 µM in [3]; 18.6 µM in experiment [4]; 22.7 µM in experiment [5]; 79.5 µM in experiment [6]; 49.3 µM in experiment [7]. Also, the TGI is above 100 µM in [8], 29.2 µM in experiment [9], 46.9 µM in [10] and 61.8 µM in experiment [11].
For `c1ccc2c(c1)CCCN1CCc3ccccc3C21` (stereo not drawn), the TGI in experiment [1], in [2], in [3], in experiment [4], in experiment [5] and in [6] was above 100 µM each time. Moreover, the TGI is 70.4 µM in experiment [7]; above 100 µM in experiment [8]; above 100 µM in experiment [9]; 56.4 µM in experiment [10]; above 100 µM in [11].
In the case of `NCCCC(N)C(=O)O` (stereo not drawn), the TGI in [1], in experiment [2], in [3], in [4], in experiment [5] and in experiment [6] was above 100 µM in each case. For the same molecule, the TGI in experiment [7], in experiment [8], in [9], in [10] and in [11] was above 100 µM throughout.
On to `CCOC(=O)C1C(=O)CC(O)(c2ccccc2)C(C(=O)OCC)C1c1ccc(OC)cc1` (stereo not drawn), for which the TGI in [1] is above 64.7 µM; in experiment [2] it was above 100 µM; in [3], 17.5 µM; in experiment [4], 53.7 µM; in experiment [5], above 100 µM; in [6], 35.9 µM. For the same molecule, the concentration for total growth inhibition (TGI) is 16 µM in experiment [7]; above 74.3 µM in experiment [8]; above 100 µM in [9]; 11.4 µM in experiment [10]; 47.9 µM in [11].
In the case of `N#CC(C#N)=C1CCCS(=O)(=O)c2ccccc21`, the total growth inhibition concentration (TGI) in experiment [1], in experiment [2], in [3], in experiment [4], in experiment [5] and in [6] was above 100 µM in each case. The TGI in experiment [7], in experiment [8], in [9], in [10] and in experiment [11] was above 100 µM each time.
With `O=C1C(Br)=Cc2c(Cl)sc(Cl)c21`, the TGI in experiment [1] was 5.84 µM; in experiment [2], above 28 µM; in experiment [3], above 66.4 µM; in [4] it was above 93.8 µM; in [5] it was 53.3 µM; in experiment [6], 27.3 µM. For the same molecule, the TGI was determined as 8.7 µM in experiment [7]; 12.9 µM in [8]; 11.5 µM in experiment [9]; 5.43 µM in experiment [10]; 23.6 µM in experiment [11].
For the molecule `O=C1NC(=S)NC(=O)C1C(c1ccccc1[N+](=O)[O-])C1C(=O)NC(=S)NC1=O`, the concentration for total growth inhibition (TGI) in experiment [1], in experiment [2], in experiment [3], in [4], in experiment [5] and in experiment [6] was above 100 µM in each case. Besides, the TGI in experiment [7], in [8], in experiment [9], in experiment [10] and in experiment [11] was above 100 µM throughout.

Values taken from PubChem BioAssay (NCI).
